Consider 27 molecules from patent US9790202B2, “Anthranilamide derivatives as pesticides” (priority 2010, dated 2017).

Data set [1] concerns caterpillars of the armyworm (Spodoptera frugiperda). Briefly: Spodoptera frugiperda test (SPODFR spray treatment). The conditions noted are these: Spodoptera frugiperda, foliar, 168 h, read-out: efficacy in % (caterpillars killed). The format is in vivo. As to the method: Spodoptera frugiperda Test (SPODFR Spray Treatment)
(§1) Solvent: 78.0 parts by weight of acetone 1.5 parts by weight of dimethylformamide
(§2) Emulsifier: 0.5 part by weight of alkylaryl polyglycol ether
(§3) To produce an appropriate active ingredient formulation, 1 part by weight of active ingredient is mixed with the stated amounts of solvent and emulsifier, and the concentrate is diluted with emulsifier-containing water to the desired concentration.
Leaf discs of maize (Zea mays) are sprayed with an active ingredient formulation of the desired concentration and, after drying, populated with caterpillars of the armyworm (Spodoptera frugiperda).
After 7 days, the efficacy in % is determined 100% means that all caterpillars have been killed; 0% means that no caterpillars have been killed.

Data set [2] is described as follows: log P determination by HPLC on reversed-phase columns (C 18), acidic range. The format is physicochemical. The protocol:
The log P values reported in the table above and in the Preparation Examples were determined in accordance with EEC Directive 79/831 Annex V.A8 by HPLC (High Performance Liquid Chromatography) on reversed-phase columns (C 18), with the following methods:
The LC-MS determination in the acidic range is effected at pH 2.7 using 0.1% aqueous formic acid and acetonitrile (contains 0.1% formic acid) as eluents, linear gradient from 10% acetonitrile to 95% acetonitrile
The calibration was effected with unbranched alkan-2-ones (having 3 to 16 carbon atoms) with known log P values (log P values determined on the basis of the retention times by linear interpolation between two successive alkanones).

The test system of data set [3] is larvae of the mustard beetle (Phaedon cochleariae). The experiment in a line: Phaedon test (PHAECO spray treatment), Use Example 2. It is filed as in vivo. The settings on record: foliar, 168 h, read-out: efficacy in % (beetle larvae killed). The protocol:
Phaedon Test (PHAECO Spray Treatment)
as §1, §2, §3
Leaf discs of Chinese cabbage (Brassica pekinensis) are sprayed with an active ingredient formulation of the desired concentration and, after drying, populated with larvae of the mustard beetle (Phaedon cochleariae).
After 7 days, the efficacy in % is determined 100% means that all beetle larvae have been killed; 0% means that no beetle larvae have been killed.

In data set [4] the test system is green peach aphid (Myzus persicae). Briefly: Myzus test (MYZUPE spray treatment). It is filed as in vivo. The conditions noted are these: foliar, 144 h, read-out: efficacy in % (aphids killed). As to the method: Myzus Test (MYZUPE Spray Treatment)
Solvent: 78 parts by weight of acetone 1.5 parts by weight of dimethylformamide
as §2, §3
Leaf discs of Chinese cabbage (Brassica pekinensis) infested by all stages of the green peach aphid (Myzus persicae) are sprayed with an active ingredient formulation of the desired concentration.
After 6 days, the efficacy in % is determined 100% means that all aphids have been killed; 0% means that no aphids have been killed.

Setting [5] is: 100 g/ha, spray on maize leaf discs, after 7 days.
The mark [6] stands for this setting: reversed-phase C18 HPLC column, pH 2.7, HPLC reversed-phase C 18, pH 2.7, 0.1% aqueous formic acid / acetonitrile, read-out: LOGP (HCOOH).
Where [7] appears, read: 100 g/ha, spray on Chinese cabbage leaf discs, after 7 days.

Read-outs that look alike come from different tables or passages of the source.

For `CNC(=O)c1cc(C(C)=O)cc(C)c1NC(=O)c1cc(Cn2nnc(C(F)(F)F)n2)nn1-c1ncccc1Cl` [Compound 8], the pest or weed control at 100 g/ha in data set [1] (in Zea mays) was 100%. This molecule also yielded a chromatographic logP in data set [2] (pH 2.7, LOGP (HCOOH)) of 2.53.

As to `CC(=O)c1cc(C)c(NC(=O)c2cc(Cn3nnc(C(F)(F)F)n3)nn2-c2ncccc2Cl)c(C(=O)NC(C)C)c1` [Compound 9], the pest or weed control at 100 g/ha in data set [1] (in Zea mays) worked out at 100%. In addition, the chromatographic logP in data set [2] (pH 2.7, LOGP (HCOOH)) was 2.94.

With `CC(=O)c1cc(C)c(NC(=O)c2cc(Cn3nnc(C(F)(F)F)n3)nn2-c2ncccc2Cl)c(C(=O)NC2CC2)c1` [Compound 10], in data set [1] (in Zea mays), the pest or weed control at 100 g/ha came to 100%. The same molecule yielded a chromatographic logP in data set [2] (pH 2.7, LOGP (HCOOH)) of 2.73.

Take `CC(=O)c1cc(C)c(NC(=O)c2cc(Cn3nnc(C(F)(F)F)n3)nn2-c2ncccc2Cl)c(C(=O)NC(C)C2CC2)c1` (stereo not drawn) [Compound 11]: the pest or weed control at 100 g/ha in data set [3] (in Brassica rapa) and in data set [1] (in Zea mays) was 100% throughout. The chromatographic logP in data set [2] (pH 2.7, LOGP (HCOOH)) was found to be 3.23.

With `CC(=O)c1cc(C)c(NC(=O)c2cc(Cn3nnc(C(F)(F)F)n3)nn2-c2ccccc2Cl)c(C(=O)NC(C)(C)C)c1` [Compound 12], in data set [1] (setting [5]), the pest or weed control at 100 g/ha was found to be 100%. In addition, the chromatographic logP in data set [2] (setting [6]) is 3.76.

For the molecule `CC(=O)c1cc(C)c(NC(=O)c2cc(Cn3nnc(C(F)(F)F)n3)nn2-c2ccccc2Cl)c(C(=O)NC(C)C)c1` [Compound 13], the pest or weed control at 100 g/ha in data set [3] (setting [7]) and in data set [1] (setting [5]) was 100% each time. Also, in data set [2] (setting [6]), the chromatographic logP was determined as 3.46.

`CC(=O)c1cc(C)c(NC(=O)c2cc(Cn3nnc(C(F)(F)F)n3)nn2-c2ccccc2Cl)c(C(=O)NC(C)C2CC2)c1` (stereo not drawn) [Compound 14]: the pest or weed control at 100 g/ha in data set [1] (setting [5]) is 100%. Moreover, in data set [2] (setting [6]), the chromatographic logP stood at 3.74.

With `CCNC(=O)c1cc(C(C)=O)cc(C)c1NC(=O)c1cc(Cn2nnc(C(F)(F)F)n2)nn1-c1ccccc1Cl` [Compound 16], the pest or weed control at 100 g/ha in data set [1] (setting [5]) worked out at 100%. The chromatographic logP in data set [2] (setting [6]) amounted to 3.27.

With `CNC(=O)c1cc(C(N)=O)cc(C)c1NC(=O)c1cc(Cn2nnc(C(F)(F)F)n2)nn1-c1ncccc1Cl` [Compound 17], the pest or weed control at 100 g/ha in data set [3] (in Brassica rapa), in data set [1] (in Zea mays) and in data set [4] (in Brassica rapa) was 100% each time. Besides, the chromatographic logP in data set [2] (pH 2.7, LOGP (HCOOH)) is 1.94.

As for `Cc1cc(C(N)=O)cc(C(=O)NC(C)(C)C)c1NC(=O)c1cc(Cn2nnc(C(F)(F)F)n2)nn1-c1ncccc1Cl` [Compound 18], the pest or weed control at 100 g/ha in data set [3] (in Brassica rapa) is 100%; in data set [1] (in Zea mays), 100%; in data set [4] (in Brassica rapa) it was 90%. The chromatographic logP in data set [2] (pH 2.7, LOGP (HCOOH)) stood at 2.5.

Consider `Cc1cc(C(N)=O)cc(C(=O)NC(C)C)c1NC(=O)c1cc(Cn2nnc(C(F)(F)F)n2)nn1-c1ncccc1Cl` [Compound 19], for which the pest or weed control at 100 g/ha in data set [3] (in Brassica rapa) and in data set [1] (in Zea mays) was 100% in each case. This molecule also showed a chromatographic logP in data set [2] (pH 2.7, LOGP (HCOOH)) of 2.27.

Consider `Cc1cc(C(N)=O)cc(C(=O)NC2CC2)c1NC(=O)c1cc(Cn2nnc(C(F)(F)F)n2)nn1-c1ncccc1Cl` [Compound 20], for which the pest or weed control at 100 g/ha worked out at 83% in data set [3] (in Brassica rapa) and 100% in data set [1] (in Zea mays). The molecule also registered a chromatographic logP in data set [2] (pH 2.7, LOGP (HCOOH)) of 2.11.

`Cc1cc(C(N)=O)cc(C(N)=O)c1NC(=O)c1cc(Cn2nnc(C(F)(F)F)n2)nn1-c1ncccc1Cl` [Compound 21]: the pest or weed control at 100 g/ha in data set [3] (in Brassica rapa) was determined as 100%; in data set [1] (in Zea mays) it was 100%; in data set [4] (in Brassica rapa), 80%. For the same molecule, in data set [2] (pH 2.7, LOGP (HCOOH)), the chromatographic logP came to 1.83.

With `Cc1cc(C(N)=S)cc(C(=O)NC(C)(C)C)c1NC(=O)c1cc(Cn2nnc(C(F)(F)F)n2)nn1-c1ncccc1Cl` [Compound 22], the pest or weed control at 100 g/ha in data set [3] (in Brassica rapa) was 100%; in data set [1] (in Zea mays) it was 100%; in data set [4] (in Brassica rapa), 90%. For the same molecule, the chromatographic logP in data set [2] (pH 2.7, LOGP (HCOOH)) came out at 2.89.

Regarding `CNC(=O)c1cc(C(N)=S)cc(C)c1NC(=O)c1cc(Cn2nnc(C(F)(F)F)n2)nn1-c1ccccc1Cl` [Compound 24], the pest or weed control at 100 g/ha turned out to be 100% in data set [3] (setting [7]); 100% in data set [1] (setting [5]); 90% in data set [4] (100 g/ha, spray on Chinese cabbage leaf discs, after 6 days). The chromatographic logP in data set [2] (setting [6]) worked out at 2.65.

For `CNC(=O)c1cc(C(N)=S)cc(C)c1NC(=O)c1cc(Cn2nnc(C(F)(F)C(F)(F)F)n2)nn1-c1ncccc1Cl` [Compound 25], the pest or weed control at 100 g/ha in data set [3] (in Brassica rapa), in data set [1] (in Zea mays) and in data set [4] (in Brassica rapa) was 100% each time. Also, the chromatographic logP in data set [2] (pH 2.7, LOGP (HCOOH)) came out at 2.64.

In the case of `Cc1cc(C(=O)OCC2CC2)cc(C(=O)NC(C)(C)C)c1NC(=O)c1cc(Cn2nnc(C(F)(F)C(F)(F)F)n2)nn1-c1ncccc1Cl` [Compound 28], the pest or weed control at 100 g/ha in data set [1] (setting [5]) was 100%. The chromatographic logP in data set [2] (setting [6]) amounted to 4.54.

`Cc1cc(C(=O)OCC2CCC2)cc(C(=O)NC(C)(C)C)c1NC(=O)c1cc(Cn2nnc(C(F)(F)F)n2)nn1-c1ncccc1Cl` [Compound 29]: the pest or weed control at 100 g/ha in data set [1] (setting [5]) was 100%. In addition, in data set [2] (setting [6]), the chromatographic logP came out at 4.62.

As to `CNC(=O)c1cc(C(=O)OC)cc(C)c1NC(=O)c1cc(Cn2nnc(C(F)(F)F)n2)nn1-c1ccccc1Cl` [Compound 30], the pest or weed control at 100 g/ha in data set [1] (setting [5]) amounted to 100%. The chromatographic logP in data set [2] (setting [6]) stood at 3.28.

For the molecule `Cc1cc(C(=O)OC2CCC2)cc(C(=O)NC(C)(C)C)c1NC(=O)c1cc(Cn2nnc(C(F)(F)F)n2)nn1-c1ncccc1Cl` [Compound 31], in data set [2] (setting [6]), the chromatographic logP was found to be 4.37.

On to `Cc1cc(C2OCCO2)cc(C(=O)NC(C)(C)C)c1NC(=O)c1cc(Cn2nnc(C(F)(F)F)n2)nn1-c1ncccc1Cl` [Compound 33], for which the pest or weed control at 100 g/ha in data set [1] (in Zea mays) and in data set [4] (in Brassica rapa) was 100% each time. This molecule registered a chromatographic logP in data set [2] (pH 2.7, LOGP (HCOOH)) of 3.22.

In the case of `CNC(=O)c1cc(-n2ccc(C(F)(F)F)n2)cc(C)c1NC(=O)c1cc(Cn2nnc(C(F)(F)F)n2)nn1-c1ncccc1Cl` [Compound 34], the pest or weed control at 100 g/ha in data set [3] (in Brassica rapa) and in data set [1] (in Zea mays) was 100% throughout. The same molecule registered a chromatographic logP in data set [2] (pH 2.7, LOGP (HCOOH)) of 3.48.

`CNC(=O)c1cc(-n2ccc(C(F)(F)F)n2)cc(C)c1NC(=O)c1cc(Cn2nnc(C(F)(F)C(F)(F)F)n2)nn1-c1ncccc1Cl` [Compound 35]: the pest or weed control at 100 g/ha in data set [3] (setting [7]) and in data set [1] (setting [5]) was 100% throughout. Moreover, the chromatographic logP in data set [2] (setting [6]) was found to be 3.86.

As to `CNC(=O)c1cc(-n2cncn2)cc(C)c1NC(=O)c1cc(Cn2nnc(C(F)(F)C(F)(F)F)n2)nn1-c1ncccc1Cl` [Compound 37], the pest or weed control at 100 g/ha in data set [3] (in Brassica rapa) was 100%; in data set [1] (in Zea mays), 100%; in data set [4] (in Brassica rapa) it was 80%.

Turning to `Cc1cc(C2OCCCO2)cc(C(=O)NC(C)(C)C)c1NC(=O)c1cc(Cn2nnc(C(F)(F)F)n2)nn1-c1ncccc1Cl` [Compound 38], the pest or weed control at 100 g/ha in data set [1] (in Zea mays) is 100%. Moreover, the chromatographic logP in data set [2] (pH 2.7, LOGP (HCOOH)) was 3.37.

Take `Cc1cc(C2OCC(C)(C)CO2)cc(C(=O)NC(C)(C)C)c1NC(=O)c1cc(Cn2nnc(C(F)(F)F)n2)nn1-c1ncccc1Cl` [Compound 39]: the pest or weed control at 100 g/ha in data set [1] (setting [5]) was found to be 100%. The chromatographic logP in data set [2] (setting [6]) came out at 4.07.

For the molecule `COC(=O)c1cc(C)c(N)c(C(=O)NC(C)(C)C)c1` [Example No. B, methyl 4-amino-3-(tert-butylcarbamoyl)-5-methylbenzoate], the chromatographic logP in data set [2] (reversed-phase C18 HPLC column, pH 2.7, Preparation Example, HPLC reversed-phase C 18, read-out: log P) came out at 2.48.
